{"source": "patent US6468469B2", "about": "“Reuse determination for high level disinfectant” (Metrex Research Corporation, priority 2000, dated 2002)", "origin": "cited, not measured here", "test_system": "M. tuberculosis", "details": "alone at a concentration of up to 7.5%", "data": [{"molecule": "OO", "note": "[hydrogen peroxide]", "values": [{"measurement": "kill of M. tuberculosis", "value": "does not kill"}]}]}
